# Measured values: the supplement of paper PMC10307832
# Columns and labels:
# Assay in all cases: relative viability (nuclei count vs DMSO), 5 days (fraction); higher = more cells survive
# Vismodegib + Crizotinib = compound: CS(=O)(=O)c1ccc(C(=O)Nc2ccc(Cl)c(-c3ccccn3)c2)c(Cl)c1 [Vismodegib] + C[C@@H](Oc1cc(-c2cnn(C3CCNCC3)c2)cnc1N)c1c(Cl)ccc(F)c1Cl [Crizotinib] (partner 1 µM)
# Outline: (§1)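 Cells from lung cancer lines were seeded into 1536-well plates and, one day later, dosed by pin tool. Treatments were either a single drug or a fixed dose of an anchor drug with five library-drug doses (not always all listed) in √10 steps. After 5 days, nuclei were stained in a one-step fixation (final 0.05% Triton X-100, 1% formaldehyde, 1 ug/ml Hoechst) and counted on 4× images, and relative viability is the treated-to-vehicle nuclei ratio, as the median of duplicate plates.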
# Ruxolitinib + Bortezomib = compound: N#CC[C@H](C1CCCC1)n1cc(-c2ncnc3[nH]ccc23)cn1 [Ruxolitinib] + CC(C)C[C@H](NC(=O)[C@H](Cc1ccccc1)NC(=O)c1cnccn1)B(O)O [Bortezomib] (partner 0.002 µM)
# Outline: as §1
# VE-821 + Palbociclib = compound: CS(=O)(=O)c1ccc(-c2cnc(N)c(C(=O)Nc3ccccc3)n2)cc1 [VE-821] + CC(=O)c1c(C)c2cnc(Nc3ccc(N4CCNCC4)cn3)nc2n(C2CCCC2)c1=O [Palbociclib] (partner 0.5 µM)
# Outline: as §1
# VE-821 + Phenformin = compound: CS(=O)(=O)c1ccc(-c2cnc(N)c(C(=O)Nc3ccccc3)n2)cc1 [VE-821] + N=C(N)NC(=N)NCCc1ccccc1 [Phenformin] (partner 250 µM)
# Outline: as §1
Cell Line,relative viability (Vismodegib + Crizotinib; first compound 0.08 µM),relative viability (Vismodegib + Crizotinib; first compound 0.253 µM),relative viability (Vismodegib + Crizotinib; first compound 0.8 µM),relative viability (Vismodegib + Crizotinib; first compound 2.53 µM),relative viability (Vismodegib + Crizotinib; first compound 8 µM),relative viability (Ruxolitinib + Bortezomib; first compound 0.08 µM),relative viability (Ruxolitinib + Bortezomib; first compound 0.253 µM),relative viability (Ruxolitinib + Bortezomib; first compound 0.8 µM),relative viability (Ruxolitinib + Bortezomib; first compound 2.53 µM),relative viability (Ruxolitinib + Bortezomib; first compound 8 µM),relative viability (VE-821 + Palbociclib; first compound 0.08 µM),relative viability (VE-821 + Palbociclib; first compound 0.253 µM),relative viability (VE-821 + Palbociclib; first compound 0.8 µM),relative viability (VE-821 + Palbociclib; first compound 2.53 µM),relative viability (VE-821 + Palbociclib; first compound 8 µM),relative viability (VE-821 + Phenformin; first compound 0.08 µM),relative viability (VE-821 + Phenformin; first compound 0.253 µM),relative viability (VE-821 + Phenformin; first compound 0.8 µM),relative viability (VE-821 + Phenformin; first compound 2.53 µM),relative viability (VE-821 + Phenformin; first compound 8 µM)
NCI-H647,1.07,1.13,1.11,0.969,1.07,0.867,0.942,1.23,0.783,0.885,0.385,0.297,0.349,0.371,0.15,0.556,0.532,0.454,0.533,0.211
LCLC-97TM1,–,–,0.418,–,0.355,0.407,0.69,0.635,0.906,0.526,0.257,0.238,0.25,0.267,0.255,0.413,0.454,0.426,0.457,0.435
BEN,0.779,0.927,0.807,0.934,0.986,0.634,0.693,0.824,0.747,1.16,0.504,0.461,0.469,0.517,0.642,0.284,0.281,0.283,0.257,0.249
NCI-H650,0.61,0.702,0.687,0.809,0.865,–,0.777,0.812,0.888,0.478,0.365,0.341,0.331,0.438,0.352,0.448,0.429,0.45,0.494,0.468
EKVX,0.849,0.895,0.898,1.09,0.952,0.785,0.994,0.986,0.989,0.929,0.458,0.361,0.341,0.429,0.4,0.241,0.223,0.204,0.221,0.226
NCI-H2009,0.94,1.05,1.13,1.01,1.12,1.19,0.963,1.31,0.828,0.646,0.204,0.215,0.234,0.18,0.188,0.507,0.471,0.498,0.461,0.36
NCI-H23,0.489,0.54,0.597,0.553,0.537,1.12,1.02,1.34,0.89,0.731,0.562,0.49,0.466,0.352,0.274,0.812,0.743,0.785,0.844,0.479
LU99A,0.664,0.49,0.575,0.491,0.624,1.27,1.05,1.21,1.15,0.842,0.426,0.456,0.434,0.408,0.267,0.947,0.896,0.807,0.873,0.478
NCI-H1915,0.903,0.874,0.877,0.866,0.965,0.956,0.955,0.91,0.961,0.905,0.558,0.532,0.54,0.547,0.452,0.391,0.359,0.39,0.385,0.347
EMC-BAC-2,0.768,0.797,0.72,0.73,0.796,1.12,1.06,1.15,1.06,0.811,0.531,0.491,0.528,0.545,0.524,0.569,0.475,0.577,0.528,0.463
201T,0.954,1.06,0.997,1.02,1.01,1.14,1.26,1.21,1.34,1.3,0.37,0.35,0.355,0.318,0.325,0.476,0.415,0.468,0.431,0.364
NCI-H2228,0.563,0.412,0.426,0.547,0.419,1.27,1.11,1.14,0.957,1.09,0.885,0.762,0.981,1.03,0.547,0.356,0.294,0.284,0.457,0.194
NCI-H441,0.68,0.745,0.658,0.722,0.723,0.545,0.448,0.557,0.456,0.397,0.251,0.167,0.253,0.246,0.228,1.02,0.988,1.02,1.02,0.842
NCI-H1437,0.876,0.912,0.902,0.934,0.931,0.634,0.519,0.586,0.413,0.464,0.305,0.262,0.36,0.335,0.284,0.318,0.319,0.329,0.306,0.274
EPLC-272H,0.899,0.849,0.856,0.867,1.04,0.846,0.976,0.984,0.937,0.734,0.342,0.313,0.295,0.33,0.326,0.322,0.29,0.326,0.383,0.26
LOU-NH91,0.726,0.76,0.704,0.747,0.728,0.52,0.463,0.492,0.47,0.534,0.543,0.512,0.545,0.548,0.565,0.742,0.701,0.693,0.706,0.734
ABC-1,0.6,0.827,1.12,0.993,0.958,0.324,0.303,0.325,0.284,0.285,0.651,0.788,0.601,0.695,0.633,0.308,0.26,0.203,0.244,0.211
